Test results reported in patent publication US11613547B2 (priority 2019, dated 2023).
Entries after “also recorded” stand apart in the source; their conditions may differ.

Legend:
hKOR [1] = biological target: T1, hKOR (Homo sapiens, UniProt P41145); assay: cAMP inhibition assay (GloSensor, HEK 293T), hKOR; format: cell-based; conditions: for Emax: HEK-293T, read-out: Gi Emax hKOR; for Bias factor toward G protein, hKOR: cAMP inhibition vs Tango, against U50,488H as control
T1 construct: expressed in transfected cells; host or cells: HEK 293T (ATCC CRL-11268), transient

hMOR [2] = biological target: T2, hMOR (Homo sapiens, UniProt P35372); assay: cell-based; format: cell-based; conditions: for Emax: HEK-293T, read-out: Gi Emax hMOR; for EC50: read-out: Gi EC50 hMOR
T2 construct: expressed in transfected cells; host or cells: HEK 293T (ATCC CRL-11268), transient

hKOR [3] = biological target: T1, hKOR; assay: Tango β-arrestin recruitment assay, hKOR; format: cell-based; conditions: for Arrestin pEC50±SEM hKOR / EC50: Tango, WT-hKOR
hMOR [4] = biological target: T2, hMOR; assay: Tango β-arrestin recruitment assay, hMOR; format: cell-based
mDOR [5] = biological target: T3, mDOR (Mus musculus, UniProt P32300); assay: Radioligand competition binding ([125I]IBNtxA), CHO membranes, mDOR; conditions: vs 125IBNtxA (0.1 nM), CHO membranes, mean ± SEM
T3 construct: expressed in transfected cells

mMOR [6] = biological target: T4, mMOR (Mus musculus, UniProt P42866); assay: Radioligand competition binding ([125I]IBNtxA), CHO membranes, mMOR; conditions: vs 125IBNtxA (0.1 nM), mean ± SEM
T4 construct: expressed in transfected cells

[7] = biological target: T5, rat kappa opioid receptor (rKOR) (Rattus norvegicus, UniProt P34975); assay: BRET assay, G-protein activation, rKOR; format: cell-based
T5 construct: expressed in transfected cells; host or cells: HEK-293T, transient (PEI), with BRET sensor cDNAs

hDOR [8] = biological target: T6, hDOR (Homo sapiens, UniProt P41143); assay: cAMP inhibition assay, hDOR; format: cell-based; parameters: expressed in transfected cells
hDOR [9] = biological target: T6, hDOR; assay: Tango β-arrestin recruitment assay, hDOR; format: cell-based; parameters: expressed in transfected cells; host or cells: HTLA cells expressing TEV fused-beta-Arrestin2
[10] = biological target: T7, mouse mu opioid receptor (mMOR) (Mus musculus, UniProt P42866); assay: cell-based; format: cell-based
T7 construct: expressed in transfected cells; host or cells: HEK-293T, transient (PEI), with BRET sensor cDNAs

mKOR [11] = biological target: T8, mKOR (Mus musculus, UniProt P33534); assay: [35S]GTPγS functional assay, mKOR; format: biochemical
T8 construct: expressed in transfected cells

mMOR [12] = biological target: T4, mMOR; assay: [35S]GTPγS functional assay, mMOR; format: biochemical
[13] = biological target: T9, mouse delta opioid receptor (mDOR) (Mus musculus, UniProt P32300); assay: BRET assay, G-protein activation, mDOR; format: cell-based
T9 construct: expressed in transfected cells; host or cells: HEK-293T, transient (PEI), with BRET sensor cDNAs

mKOR [14] = biological target: T8, mKOR; assay: Radioligand competition binding ([125I]IBNtxA), CHO membranes, mKOR; conditions: vs 125IBNtxA (0.1 nM), mean ± SEM
mDOR [15] = biological target: T3, mDOR; assay: [35S]GTPγS functional assay, mDOR; format: biochemical
[16] = biological target: T5, rat kappa opioid receptor (rKOR); assay: BRET assay, arrestin recruitment, rKOR; format: cell-based; conditions: BRET
[17] = biological target: T7, mouse mu opioid receptor (mMOR); assay: cell-based; format: cell-based; remark: listed apart in the source

## NCc1ccc(C(=O)N[C@@H]2CC[C@H]3[C@H]4Cc5ccc(O)c6c5[C@@]3(CCN4CC3CC3)[C@H]2O6)cc1 [MP1209, 4-(aminomethyl)-N-((4R,4aR,7R,7aR,12bS)-3-(cyclopropylmethyl)-9-hydroxy-2,3,4,4a,5,6,7,7a-octahydro-1H-4,12-methano[1]benzofuro[3,2-e]isoquinolin-7-yl)benzamide]
hKOR [1]
  Emax: 100 ± 1.23%
  Bias factor toward G protein, hKOR: 0.6
hKOR [1]; cAMP inhibition
  Gi pEC50±SEM hKOR: 10.6±0.05
hKOR [1]; cAMP inhibition, read-out: Gi EC50 hKOR
  EC50: 0.024 nM
hMOR [2]
  Gi pEC50±SEM hMOR: 9.61±0.04
  Emax: 98.5 ± 0.96%
  EC50: 0.25 nM
hKOR [3]
  Emax: 67 ± 3%
  Arrestin pEC50±SEM hKOR: 9.43±0.19
  EC50: 0.37 nM
hMOR [4]; Tango
  arrestin recruitment at hMOR: null arrestin recruitment; also recorded: no arrestin recruitment was observed

## O=C(N[C@@H]1CC[C@H]2[C@H]3Cc4ccc(O)c5c4[C@@]2(CCN3CC2CC2)[C@H]1O5)c1cccc(CO)c1 [MP1210, N-((4R,4aR,7R,7aR,12bS)-3-(cyclopropylmethyl)-9-hydroxy-2,3,4,4a,5,6,7,7a-octahydro-1H-4,12-methano[1]benzofuro[3,2-e]isoquinolin-7-yl)-3-(hydroxymethyl)benzamide]
hKOR [1]
  Emax: 101 ± 1.1%
  Bias factor toward G protein, hKOR: 1.2
hKOR [1]; cAMP inhibition
  Gi pEC50±SEM hKOR: 10.6±0.05
hMOR [2]
  Gi pEC50±SEM hMOR: 9.81±0.05
  Emax: 94.6 ± 0.98%
  EC50: 0.15 nM
hKOR [3]
  Emax: 63 ± 3.3%
  Arrestin pEC50±SEM hKOR: 8.94±0.17
hMOR [4]; Tango
  arrestin recruitment at hMOR: null arrestin recruitment; also recorded: no arrestin recruitment was observed

## CO[C@@]12CC[C@@H](NC(=O)c3cccc(I)c3)C3Oc4c(O)ccc5c4[C@@]31CCN(CC1CC1)C2C5 (stereo partly drawn) [MP1305, N-((4aS,7R,12bS)-3-(Cyclopropylmethyl)-9-hydroxy-4a-methoxy-2,3,4,4a,5,6,7,7a-octahydro-1H-4,12-methanobenzofuro[3,2-e]isoquinolin-7-yl)-3-iodobenzamide]
hKOR [1]
  Emax: 102 ± 1.2%
  Bias factor toward G protein, hKOR: 4
hKOR [1]; cAMP inhibition
  Gi pEC50±SEM hKOR: 9.14±0.05
hMOR [2]
  Bias factor toward G protein, hMOR: 11
  Gi pEC50±SEM hMOR: 9.9±0.12
  Emax: 69 ± 1.8%
  EC50: 0.12 nM
hKOR [3]
  Emax: 75 ± 1%
  Arrestin pEC50±SEM hKOR: 7.6±0.04
  EC50: 25.7 nM
mDOR [5]
  Ki: 11.7 ± 1.4 nM
mMOR [6]
  Ki: 0.25 ± 0.02 nM
[7]; BRET
  Gi pEC50±SEM rKOR: 8.3±0.32
[7]; read-out: Gi Emax rKOR
  Emax: 35 ± 3%
hDOR [8]; hDOR
  EC50: 74.2 nM
  cAMP inhibition pEC50 ± SEM: 7.1 ± 0.08
hDOR [8]; read-out: cAMP inhibition Emax % ± SEM
  Emax: 71 ± 2.4%
hDOR [9]; hDOR, Tango
  Arrestin recruitment pEC50 ± SEM: 6.6 ± 0.06
  EC50: 228 nM
hDOR [9]; read-out: Arrestin recruitment Emax % ± SEM
  Emax: 89 ± 2.8%
hMOR [4]
  Emax: 21 ± 3%
hMOR [4]; Tango
  Arrestin pEC50±SEM hMOR: 7.8±0.3
  EC50: 16.4 nM
[10]
  Gi pEC50±SEM mMOR: 9.1±0.12
[10]; read-out: Gi EC50 mMOR
  EC50: 0.74 nM
[10]; read-out: Gi Emax mMOR
  Emax: 72 ± 2%
mKOR [11]
  Emax: 42.2 ± 5.3%
mKOR [11]; [35S]GTPγS, nM ± SEM
  EC50: 7.4 ± 1.8 nM
mMOR [12]
  Emax: 81.2 ± 16%
mMOR [12]; [35S]GTPγS, nM ± SEM
  EC50: 0.7 ± 0.1 nM
[13]; mDOR, BRET
  EC50: 40.4 nM
  G-Protein activation pEC50 ± SEM: 7.4 ± 0.20
[13]; read-out: G-Protein activation Emax % ± SEM
  Emax: 105 ± 5.9%
mKOR [14]
  Ki: 2.5 ± 0.3 nM
mDOR [15]
  Emax: 22 ± 0.9%
mDOR [15]; [35S]GTPγS, nM ± SEM
  EC50: 31.7 ± 3.6 nM
[16]
  arrestin recruitment at rKOR: no arrestin recruitment was observed
[17]
  arrestin recruitment at mMOR: no arrestin recruitment was observed
